Assay results taken from patent publication US4952580A, “Pesticidal polyhaloalkene derivatives” (priority 1988, dated 1990).
Where two headings read alike, the source gives them in different places.

Key:
[1] = test system: root-knot nematode (Meloidogyne incognita); test: Initial Root-Knot Nematicidal Activity; assay type: in vivo; conditions: 336 h, read-out: Percent Control; for pest or weed control at 1.25 ppm: Table 2, Application Rate 1.25 ppm
Procedure: (§1) Compounds of this invention were tested as follows for nematicidal and anthelmintic activity as dust formulations (initial and residual activity) and as acetone/water formulations (systemic activity). The formulations are described above.
The activity against root-knot nematode (Meloidogyne incognita) was determined by incorporating the compound of the invention in nematode infested soil at rates in the range of 10 ppm to 0.078 ppm of compound. Several tomato or cucumber seedlings were planted in the nematode infested soil. Two weeks after planting the test pots were evaluated to ascertain the degree of galling (swelling) on the roots of the plants, indicating the control provided by the test chemical.
The results expressed as precent control (determined by knot index) are set forth as averages in Table 2 (appended). Knot index is a numerical designation assigned at evaluation, having the following meanings:
Percent control is related to knot index as follows:
When the Knot Index is between 0 and 1 it is further subdivided as follows to indicate how close the percent control is to 75% or 100%: […]

[2] = test system: root-knot nematode; test: Residual Root-Knot Nematicidal Activity; assay type: in vivo, Meloidogyne incognita; conditions: Table 3a, 5% dust, 5 ppm, read-out: Percent Control
Procedure: as §1
The ability of nematicidal compounds of the invention to control root-knot nematode infestations in soil over a period of time after treatment was evaluated. Dust formulations of test compound (5%) were incorporated into soil samples at test compound rates of 5 and 10 ppm. Subsequently, the treated soil samples were inoculated with nematode inoculum at weekly intervals, and Knot Index and Percent Control determined on seedlings planted in the soil samples. Specifically, soil treated with test compound was placed in 7.6 cm diameter fiber pots and stored in a greenhouse. At one, two and four weeks post-treatment, the appropriate number of pots was infested with root-knot nematode eggs and larvae. A cucumber or tomato seedling was planted in each pot and evaluated approximately two weeks after the soil infestation to obtain the test results reported in Tables 3 and 3a appended.

[3] = test system: stunt nematode; test: Stunt Nematode Test; assay type: in vivo
Procedure: as §1
The procedure was substantially the same as in the […] seedling, with subsequent inoculation of the soil with combined larvae and adult stunt nematodes. The samples were evaulated approximately four weeks after infestation. […] "Percent control" means the difference between average population counts between untreated and treated samples, divided by average population count of untreated sample, multiplied by 100.

[4] = test system: lesion nematode; test: Lesion Nematode Test; assay type: in vivo; conditions: Table 5; rate 2.5 ppm; read-out: Percent Control
Procedure: as §1
The procedure was substantially the same as in the stunt nematode test described above except that pea seedlings were used. The results (Table 5 appended) show good control with many of the compounds at the application rates tested as compared with untreated samples (no control). "Percent Control" is defined as follows: [formula]

[5] = test system: root-knot nematode; test: Soil Mobility against root-knot nematode; assay type: in vivo, Meloidogyne incognita; conditions: 336 h
Procedure: as §1
The ability of nematicidal compounds of the invention to move through nematode-infested soil […] infested soil, and subsequently eluting the soil with 15 cm of water (equivalent to 15 cm of rainfall) into a series of two or more pots of untreated, but nematode-infested, soil. Specifically, the pots were 8 cm diameter plastic pots containing a 10 cm^3 layer of sand over a coarse grade filter paper disc. Sufficient soil was placed over the sand to fill the pots, and a second filter paper disc was placed over the soil. Each test compound-treated pot was nested over a series of two or more pots containing untreated, but nematode-infested soil, also containing sand filter paper discs as described for the treated soil pots. Fifteen cm of water was slowly dripped into the top pots and the pots were allowed to drain for 16-18 hours to remove excess water. The top filter of each pot was then removed and the pots were planted with a cucumber or tomato seedling. […] "Knot Index" and "Percent Control" are as defined in the initial root-knot nematode tests above.

[6] = Table 2, Application Rate 0.625 ppm
[7] = Table 2, Application Rate 2.5 ppm
[8] = 168 h, inoculation 1 week post-treatment
[9] = 336 h, inoculation 2 weeks post-treatment
[10] = 672 h, inoculation 4 weeks post-treatment
[11] = 672 h, Table 4a; rate 5 ppm; read-out: Percent Control
[12] = Table 7a, 5% dust, 5 ppm, BOTTOM container, read-out: Percent Control
[13] = Table 7a, 5% dust, 5 ppm, MIDDLE container, read-out: Percent Control
[14] = Table 7a, 5% dust, 5 ppm, TOP container, read-out: Percent Control
[15] = Table 2, Application Rate 0.312 ppm
[16] = read-out: Percent Control, Table 7a, 5% dust, 5 ppm, BOTTOM container

CCCSc1nnc(SCCC(F)=C(F)F)s1 [Compound 29, 2-propylthio-5-(3,4,4-trifluoro-3-butenylthio)-1,3,4-thiadiazole]
pest or weed control at 0.625 ppm [1, 6]: 99%
pest or weed control at 1.25 ppm [1]: 99%
pest or weed control at 2.5 ppm [1, 7]: 99%
pest or weed control at 0.312 ppm [1]: 95%
pest or weed control at 5 ppm [2, 8]: 100%
pest or weed control at 5 ppm [2, 9]: 98%
pest or weed control at 5 ppm [2, 10]: 81%
pest or weed control at 5 ppm [3, 11]: 56%
pest or weed control at 2.5 ppm [4]: 68%
pest or weed control at 5 ppm [5, 12]: 50%
pest or weed control at 5 ppm [5, 13]: 81%
pest or weed control at 5 ppm [5, 14]: 98%

CC(C)Sc1nnc(SCCC(F)=C(F)F)s1 [Compound 30, 2-(1-methylethylthio)-5-(3,4,4-trifluoro-3-butenylthio)-1,3,4-thiadiazole]
pest or weed control at 0.312 ppm [1, 15]: 97%
pest or weed control at 0.625 ppm [1, 6]: 99%
pest or weed control at 1.25 ppm [1]: 99%
pest or weed control at 2.5 ppm [1, 7]: 100%
pest or weed control at 5 ppm [2, 8]: 98%
pest or weed control at 5 ppm [2, 9]: 97%
pest or weed control at 5 ppm [2, 10]: 83%
pest or weed control at 5 ppm [3, 11]: 66%
pest or weed control at 2.5 ppm [4]: 75%
pest or weed control at 5 ppm [5, 13]: 100%
pest or weed control at 5 ppm [5, 14]: 99%
pest or weed control at 5 ppm [5, 16]: 17%

FC(F)=C(F)CCN=C=S [Compound 6, (3,4,4-trifluoro-3-butenyl) isothiocyanate]
pest or weed control at 2.5 ppm [1]: 38%
pest or weed control at 5 ppm [1]: 78%
pest or weed control at 10 ppm [1]: 100%
pest or weed control at 5 ppm ([3]; 672 h, Table 4; rate 5 ppm; read-out: Percent Control): 51%

FC(F)=C(F)CCSc1nnc(-c2ccc(Br)cc2)o1 [Compound 49, 2-(4-bromophenyl)-5-(3,4,4-trifluoro-3-butenylthio)-1,3,4-oxadiazole]
pest or weed control at 0.312 ppm [1, 15]: 98%
pest or weed control at 0.625 ppm [1, 6]: 100%
pest or weed control at 1.25 ppm [1]: 100%
pest or weed control at 2.5 ppm [1, 7]: 100%
pest or weed control at 5 ppm [3, 11]: 58%
pest or weed control at 5 ppm [5, 12]: 8%
pest or weed control at 5 ppm [5, 13]: 71%
pest or weed control at 5 ppm [5, 14]: 99%

FC(F)=C(F)CCSc1nnc(-c2ccc(F)cc2)o1 [Compound 50, 2-(4-fluorophenyl)-5-(3,4,4-trifluoro-3-butenylthio)-1,3,4-oxadiazole]
pest or weed control at 0.312 ppm [1, 15]: 78%
pest or weed control at 0.625 ppm [1, 6]: 99%
pest or weed control at 1.25 ppm [1]: 99%
pest or weed control at 2.5 ppm [1, 7]: 100%
pest or weed control at 5 ppm ([3]; 672 h; Table 4a; rate 5 ppm; read-out: Percent Control): 53%
pest or weed control at 5 ppm [5, 13]: 71%
pest or weed control at 5 ppm [5, 14]: 98%
pest or weed control at 5 ppm [5, 16]: 33%

FC(F)=C(F)CCSc1nnc(CCc2ccccc2)o1 [Compound 47, 2-(2-phenylethyl)-5-(3,4,4-trifluoro-3-butenylthio)-1,3,4-oxadiazole]
pest or weed control at 1.25 ppm [1]: 96%
pest or weed control at 2.5 ppm [1, 7]: 100%
pest or weed control at 0.312 ppm [1]: 95%
pest or weed control at 0.625 ppm [1]: 95%
pest or weed control at 5 ppm [2, 8]: 96%
pest or weed control at 5 ppm [2, 9]: 25%
pest or weed control at 5 ppm [2, 10]: 0%
pest or weed control at 5 ppm [3, 11]: 35%
pest or weed control at 2.5 ppm [4]: 69%
pest or weed control at 5 ppm [5, 12]: 58%
pest or weed control at 5 ppm [5, 13]: 96%
pest or weed control at 5 ppm [5, 14]: 98%

N#CCCSc1nnc(SCCC(F)=C(F)F)s1 [Compound 28, 2-(2-cyanoethylthio)-5-(3,4,4-trifluoro-3-butenylthio)-1,3,4-thiadiazole]
pest or weed control at 0.312 ppm [1, 15]: 81%
pest or weed control at 0.625 ppm [1, 6]: 86%
pest or weed control at 1.25 ppm [1]: 98%
pest or weed control at 2.5 ppm [1, 7]: 100%
pest or weed control at 5 ppm [2, 8]: 100%
pest or weed control at 5 ppm [2, 9]: 100%
pest or weed control at 5 ppm [2, 10]: 8%
pest or weed control at 5 ppm [3, 11]: 38%
pest or weed control at 2.5 ppm [4]: 45%
pest or weed control at 5 ppm [5, 12]: 68%
pest or weed control at 5 ppm [5, 13]: 83%
pest or weed control at 5 ppm [5, 14]: 68%
